Reference: patent US10538497B2, “Compounds as indoleamine 2,3-dioxygenase inhibitors” (Merck Sharp & Dohme Corp., priority 2015, dated 2020)

How the values were obtained:
[1] = biological target: T1, IDO1 (Homo sapiens (Human), UniProt P14902); test: IDO1 Cellular Assay in Hela Cells Stimulated with IFNγ; assay type: cell-based; conditions: Hela cells stimulated with IFNγ 100 ng/mL; read-out: IDO1 HELA Cell Assay, IC50
Procedure: IDO1 Cellular Assay in Hela Cells Stimulated with IFNγ
Hela cells were cultured in complete Hela culture medium (90% EMEM, 10% heat-inactivated fetal bovine serum) and expanded to about 1×10^9 cells. The cells were then collected and frozen down at 10×10^6 cells/vial in 1 mL frozen medium (90% complete Hela culture medium, 10% DMSO)
Frozen Hela cells were thawed and transferred into Hela assay medium (99% complete Hela culture medium, 1% Pen/Strep) with 20 mL medium/vial of cells. The cells were spun down at 250 g in a table top centrifuge for 5 min and suspended in same volume of Hela assay medium. The cells were then counted and adjusted to a density of 2×10^5 cells/ml in Hela assay medium. Sterile L-tryptophan were added to the cells with final concentration of 300 uM L-tryptophan. A small aliquot (2 mL/plate) of Hela cells were set aside and were not treated with IFNγ, to serve as the Max-E control. The rest of Hela cells were added with sterile IFNγ (Cat #285-IF, R & D systems) with a final concentration of 100 ng/mL.
(§1) Hela cells with and without IFNγ were dispensed to the respective wells of 384-well assay plates containing the compounds. The plates were incubated for about 48 hours at a 37° C., 5% CO2 incubator. […] The plates were centrifuged for 1 min at 200×g. The resulting fluorescence was measured in a Spectramax plate reader (Molecular Devices) with a 400 nm excitation filter and a 510 nm emission filter.

[2] = biological target: T1, IDO1; test: IDO1 Enzyme Assay; conditions: HIS-tagged recombinant IDO1, 40 nM
[3] = biological target: T1, IDO1; test: IDO1 Cellular Assay in Frozen HEK293 Cells Transiently Transfected with Human IDO1; assay type: cell-based; conditions: read-out: IDO1 HEK293 Cell Assay, IC50
Procedure: IDO1 Cellular Assay in Frozen HEK293 Cells Transiently Transfected with Human IDO1
HEK293 cells were cultured in complete HEK293 culture medium (90% DMEM, 10% heat-inactivated fetal bovine serum). When reaching sub-confluent, the cells were trypsinized and neutralized with complete medium. […] Flag-IDO1 plasmid was added to the cell suspension at a concentration of 100 μg/mL. The cell-plasmid solutions were transferred to the OC-400 processing assembly (Maxcyte), 400 l/unit and the units were placed in a Maxcyte instrument to carry out flow electroporation for transfection. The cells were then transferred to a sterile 24-well cell culture plate to recover for 20-30 min at 37° C. in an incubator with 5% CO2.
Frozen HEK293/IDO1 and HEK293 WT cells were thawed and transferred into HEK293 assay medium (99% complete HEK293 culture medium, 1% Pen/Strep) with 20 mL medium/vial of cells. The cells were spun down at 250 g in a table top centrifuge for 5 min and suspended in same volume of HEK293 assay medium. […] Sterile L-tryptophan were added to the cells with final concentration of 300 μM.
as §1, with “HEK293/IDO1 and HEK293 WT” for “Hela”, “cells” for “cells with and without IFNγ”, “28-30 h” for “48 hours”

[4] = HEK293 cells transiently transfected with human IDO1
[5] = read-out: IDO1 Enzyme Assay, IC50

T1 sequence (P14902 whole entry): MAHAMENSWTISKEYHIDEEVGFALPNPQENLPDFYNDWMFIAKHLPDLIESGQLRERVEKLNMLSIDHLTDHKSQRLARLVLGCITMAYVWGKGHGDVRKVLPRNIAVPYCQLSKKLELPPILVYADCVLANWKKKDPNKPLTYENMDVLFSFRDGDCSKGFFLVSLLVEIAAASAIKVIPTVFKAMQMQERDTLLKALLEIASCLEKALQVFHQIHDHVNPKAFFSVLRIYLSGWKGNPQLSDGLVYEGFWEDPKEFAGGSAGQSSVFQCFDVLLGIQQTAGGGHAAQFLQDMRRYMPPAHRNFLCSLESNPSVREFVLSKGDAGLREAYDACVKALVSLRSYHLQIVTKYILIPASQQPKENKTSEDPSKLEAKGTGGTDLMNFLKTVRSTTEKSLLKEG

SMILES	IC50 [1] [nM]	IC50 ([2]; IDO1 Enzyme Assay, IC50, nM) [nM]	IC50 [3, 4] [nM]	IC50 [2, 5] [nM]	IC50 [3] [nM]
OCC(O)CSc1nonc1/C(=N/O)Nc1ccc(F)c(Br)c1 (single isomer, unassigned) [Example 63, N-(3-bromo-4-fluorophenyl)-4-[(2,3-dihydroxypropyl)sulfanyl]-N′-hydroxy-1,2,5-oxadiazole-3-carboximidamide]	37.5	46.1	53.2	–	–
OCC(O)CSc1nonc1/C(=N/O)Nc1ccc(F)c(Br)c1 (single isomer, unassigned) [Example 64, N-(3-bromo-4-fluorophenyl)-4-[(2,3-dihydroxypropyl)sulfanyl]-N′-hydroxy-1,2,5-oxadiazole-3-carboximidamide]	44.1	49.1	75.9	–	–
NCCSc1nonc1/C(=N/O)Nc1ccc(F)c(Br)c1 [Example 2, (Z)-2-((4-(N-(3-Bromo-4-fluorophenyl)-N′-hydroxycarbamimidoyl)-1,2,5-oxadiazol-3-yl)thio)ethan-1-aminium chloride]	77.5	–	216	48.1	–
NS(=O)(=O)NCCSc1nonc1/C(=N/O)Nc1ccc(F)c(Br)c1 [Example 3, (Z)—N-(3-Bromo-4-fluorophenyl)-N′-hydroxy-4-((2-(sulfamoylamino)ethyl)thio)-1,2,5-oxadiazole-3-carboximidamide]	72.4	–	56.9	79.5	–
O=C(O)CCSc1nonc1/C(=N/O)Nc1ccc(F)c(Br)c1 [Example 14, (Z)-3-((4-(N-(3-bromo-4-fluorophenyl)-N′-hydroxycarbamimidoyl)-1,2,5-oxadiazol-3-yl)thio)propanoic acid]	–	–	> 10000	48.2	–
CC(Sc1nonc1/C(=N/O)Nc1ccc(F)c(Br)c1)C(=O)O (stereo not shown) [Example 16, (Z)-2-((4-(N-(3-bromo-4-fluorophenyl)-N′-hydroxycarbamimidoyl)-1,2,5-oxadiazol-3-yl)thio)propanoic acid]	–	–	> 10000	149	–
COC(=O)C1(Sc2nonc2/C(=N/O)Nc2ccc(F)c(Br)c2)CCC1 [Example 21, Methyl (Z)-1-((4-(N-(3-bromo-4-fluorophenyl)-N′-hydroxycarbamimidoyl)-1,2,5-oxadiazol-3-yl)thio)cyclobutane-1-carboxylate]	242	–	524	–	–
COC(=O)CSc1nonc1/C(=N/O)Nc1ccc(F)c(Br)c1 [Example 22, Methyl (Z)-2-((4-(N-(3-bromo-4-fluorophenyl)-N′-hydroxycarbamimidoyl)-1,2,5-oxadiazol-3-yl)thio)acetate]	–	–	1220	35.7	–
CC(=O)NCCSc1nonc1/C(=N/O)Nc1ccc(F)cc1 [Example 62, N-[2-({4-[N-(4-fluorophenyl)-N′-hydroxycarbamimidoyl]-1,2,5-oxadiazol-3-yl}sulfanyl)ethyl]acetamide]	–	–	1790	1030	–
CNC(=O)C1(CSc2nonc2/C(=N/O)Nc2ccc(F)c(Br)c2)CC1 [Example 69, 1-[({4-[N-(3-bromo-4-fluorophenyl)-N′-hydroxycarbamimidoyl]-1,2,5-oxadiazol-3-yl}sulfanyl)methyl]-N-methylcyclopropanecarboxamide]	90.8	–	103	–	–
O=c1c(NCCSc2nonc2/C(=N/O)Nc2ccc(F)c(Br)c2)c(NCC(O)CO)c1=O (stereo not shown) [Example 75, N-(3-bromo-4-fluorophenyl)-4-{[2-({2-[(2,3-dihydroxypropyl)amino]-3,4-dioxocyclobut-1-en-1-yl}amino)ethyl]sulfanyl}-N′-hydroxy-1,2,5-oxadiazole-3-carboximidamide]	–	–	1140	23	–
O=c1c(NCCSc2nonc2/C(=N/O)Nc2ccc(F)c(Br)c2)c(NCc2ccncc2)c1=O [Example 95, N-(3-bromo-4-fluorophenyl)-4-{[2-({3,4-dioxo-2-[(pyridin-4-ylmethyl)amino]cyclobut-1-en-1-yl}amino)ethyl]sulfanyl}-N′-hydroxy-1,2,5-oxadiazole-3-carboximidamide]	–	–	723	27.8	–
O=P(CCSc1nonc1/C(=N/O)Nc1ccc(F)c(Br)c1)(Oc1ccccc1)Oc1ccccc1 [Example 101, diphenyl [2-({4-[N-(3-bromo-4-fluorophenyl)-N′-hydroxycarbamimidoyl]-1,2,5-oxadiazol-3-yl}sulfanyl)ethyl]phosphonate]	–	–	–	764	2240
CCOC(=O)CNP(=O)(CCCSc1nonc1/C(=N/O)Nc1ccc(F)c(Br)c1)NCC(=O)OCC [Example 108, ethyl 4-[3-({4-[N-(3-bromo-4-fluorophenyl)-N′-hydroxycarbamimidoyl]-1,2,5-oxadiazol-3-yl}sulfanyl)propyl]-7-oxo-8-oxa-3,5-diaza-4-phosphadecan-1-oate 4-oxide]	–	–	838	131	–
CC(C)OC(=O)OCOP(=O)(CCCSc1nonc1/C(=N/O)Nc1ccc(F)c(Br)c1)OCOC(=O)OC(C)C [Example 109, bis({[(1-methylethoxy)carbonyl]oxy}methyl) [3-({4-[N-(3-bromo-4-fluorophenyl)-N′-hydroxycarbamimidoyl]-1,2,5-oxadiazol-3-yl}sulfanyl)propyl]phosphonate]	–	–	2430	706	–
O=P(CCSc1nonc1/C(=N/O)Nc1ccc(F)c(Br)c1)(NCc1ccccc1)NCc1ccccc1 [Example 116, 4-({2-[bis(benzylamino)phosphoryl]ethyl}sulfanyl)-N-(3-bromo-4-fluorophenyl)-N′-hydroxy-1,2,5-oxadiazole-3-carboximidamide]	–	–	706	154	–
O=P(O)(CCCSc1nonc1/C(=N/O)Nc1ccc(F)c(Br)c1)Oc1ccccc1 [Example 118, phenyl hydrogen [3-({4-[N-(3-bromo-4-fluorophenyl)-N′-hydroxycarbamimidoyl]-1,2,5-oxadiazol-3-yl}sulfanyl)propyl]phosphonate]	–	–	–	34.1	8150
CN(C)P(=O)(CCSc1nonc1/C(=N/O)Nc1ccc(F)c(Br)c1)N(C)C [Example 139, 4-({2-[bis(dimethylamino)phosphoryl]ethyl}sulfanyl)-N-(3-bromo-4-fluorophenyl)-N′-hydroxy-1,2,5-oxadiazole-3-carboximidamide]	–	–	–	117	551
CC(=O)N[C@H](C)CSc1nonc1/C(=N/O)Nc1ccc(F)c(C#N)c1 [Example 179, N-[(1R)-2-({4-[N-(3-cyano-4-fluorophenyl)-N′-hydroxycarbamimidoyl]-1,2,5-oxadiazol-3-yl}sulfanyl)-1-methylethyl]acetamide]	–	–	686	218	–
O=c1c(NCCSc2nsnc2/C(=N/O)Nc2ccc(F)c(Br)c2)c(NCC2CC2)c1=O [Example 210, N-(3-bromo-4-fluorophenyl)-4-{[2-({2-[(cyclopropylmethyl)amino]-3,4-dioxocyclobut-1-en-1-yl}amino)ethyl]sulfanyl}-N′-hydroxy-1,2,5-thiadiazole-3-carboximidamide]	–	–	1410	166	–
O=c1c(NCCSc2nsnc2/C(=N/O)Nc2ccc(F)c(Br)c2)c(NC2CC2)c1=O [Example 211, N-(3-bromo-4-fluorophenyl)-4-[(2-{[2-(cyclopropylamino)-3,4-dioxocyclobut-1-en-1-yl]amino}ethyl)sulfanyl]-N′-hydroxy-1,2,5-thiadiazole-3-carboximidamide]	–	–	1320	297	–
